# Test results published in ChEMBL document CHEMBL3885881, “DrugMatrix”.
# Species on record: Rattus norvegicus
# Assay: DrugMatrix - Regimen: Daily Repeat
# Assay type: toxicity, organism-based, Sprague-Dawley
# Set-up: regimen Daily Repeat, gender Male, age 6-8 weeks
# Details: in vivo, po, route oral GAVAGE, vehicle 100 % SALINE; for ABSOLUTE BASOPHIL / ABSOLUTE EOSINOPHIL / ABSOLUTE LYMPHOCYTE / ABSOLUTE MONOCYTE / ABSOLUTE SEGMENTED NEUTROPHIL / BASOPHIL / EOSINOPHIL / ERYTHROCYTE COUNT / HEMATOCRIT / HEMOGLOBIN / LEUKOCYTE COUNT / LYMPHOCYTE / MEAN CORPUSCULAR HEMOGLOBIN / MEAN CORPUSCULAR HEMOGLOBIN CONCENTRATION / MEAN CORPUSCULAR VOLUME / MONOCYTE / NEUTROPHIL / NUCLEATED RED BLOOD CELLS / PLATELET COUNT: tissue Blood; for ALANINE AMINOTRANSFERASE / ALBUMIN / ALKALINE PHOSPHATASE / ASPARTATE AMINOTRANSFERASE / BLOOD UREA NITROGEN / CARBON DIOXIDE / CHLORIDE / CHOLESTEROL / CREATINE PHOSPHOKINASE / CREATININE / GLUCOSE / LACTATE DEHYDROGENASE / LIPASE / PHOSPHORUS / POTASSIUM / SODIUM / TOTAL BILIRUBIN / TOTAL PROTEIN / URIC ACID: tissue Plasma
# [1] = 0 mg/kg, 72 h, dose level Control, time 3 day
# [2] = 0 mg/kg, 120 h, dose level Control, time 5 day
# [3] = 17.5 mg/kg, 72 h, dose level Low, time 3 day
# [4] = 17.5 mg/kg, 120 h, dose level Low, time 5 day
compound,measurement,setting,value
NC(=O)C[S+]([O-])C(c1ccccc1)c1ccccc1 (configuration not stated) [MODAFINIL],ABSOLUTE BASOPHIL,[1],0 CELLS/uL
same,ABSOLUTE EOSINOPHIL,[1],37 CELLS/uL
same,ABSOLUTE LYMPHOCYTE,[1],12359.33 CELLS/uL
same,ABSOLUTE MONOCYTE,[1],122.67 CELLS/uL
same,ABSOLUTE SEGMENTED NEUTROPHIL,[1],847.67 CELLS/uL
same,BASOPHIL,[1],0%
same,EOSINOPHIL,[1],0.33%
same,ERYTHROCYTE COUNT,[1],5.75 x10E6/uL
same,HEMATOCRIT,[1],36.08%
same,HEMOGLOBIN,[1],14.07 G/DL
same,LEUKOCYTE COUNT,[1],13.37 x10E3/uL
same,LYMPHOCYTE,[1],92.5%
same,MEAN CORPUSCULAR HEMOGLOBIN,[1],24.47 pg
same,MEAN CORPUSCULAR HEMOGLOBIN CONCENTRATION,[1],38.98 G/DL
same,MEAN CORPUSCULAR VOLUME,[1],62.78 fL
same,MONOCYTE,[1],1%
same,NEUTROPHIL,[1],6.17%
same,NUCLEATED RED BLOOD CELLS,[1],0.17 /100WBC
same,PLATELET COUNT,[1],1202.17 x10E3/uL
same,ALANINE AMINOTRANSFERASE,[1],50.67 u/L
same,ALBUMIN,[1],4.13 G/DL
same,ALKALINE PHOSPHATASE,[1],356.33 u/L
same,ASPARTATE AMINOTRANSFERASE,[1],78.17 u/L
same,BLOOD UREA NITROGEN,[1],14.17 mg/dL
same,CARBON DIOXIDE,[1],31.33 mmol/L
same,CHLORIDE,[1],98.5 MEQ/L
same,CHOLESTEROL,[1],76.5 mg/dL
same,CREATINE PHOSPHOKINASE,[1],248.33 u/L
same,CREATININE,[1],0.2 mg/dL
same,GLUCOSE,[1],144 mg/dL
same,LACTATE DEHYDROGENASE,[1],107 u/L
same,LIPASE,[1],9.83 u/L
same,PHOSPHORUS,[1],12.8 mg/dL
same,POTASSIUM,[1],6.75 MEQ/L
same,SODIUM,[1],142 MEQ/L
same,TOTAL BILIRUBIN,[1],0.18 mg/dL
same,TOTAL PROTEIN,[1],5.98 G/DL
same,URIC ACID,[1],1.42 mg/dL
same,ABSOLUTE BASOPHIL,[2],0 CELLS/uL
same,ABSOLUTE EOSINOPHIL,[2],0 CELLS/uL
same,ABSOLUTE LYMPHOCYTE,[2],8681.17 CELLS/uL
same,ABSOLUTE MONOCYTE,[2],79.83 CELLS/uL
same,ABSOLUTE SEGMENTED NEUTROPHIL,[2],689 CELLS/uL
same,BASOPHIL,[2],0%
same,EOSINOPHIL,[2],0%
same,ERYTHROCYTE COUNT,[2],5.49 x10E6/uL
same,HEMATOCRIT,[2],33.55%
same,HEMOGLOBIN,[2],13.1 G/DL
same,LEUKOCYTE COUNT,[2],9.45 x10E3/uL
same,LYMPHOCYTE,[2],92.33%
same,MEAN CORPUSCULAR HEMOGLOBIN,[2],23.92 pg
same,MEAN CORPUSCULAR HEMOGLOBIN CONCENTRATION,[2],39.07 G/DL
same,MEAN CORPUSCULAR VOLUME,[2],61.22 fL
same,MONOCYTE,[2],0.67%
same,NEUTROPHIL,[2],7%
same,NUCLEATED RED BLOOD CELLS,[2],0.17 /100WBC
same,PLATELET COUNT,[2],1001.17 x10E3/uL
same,ALANINE AMINOTRANSFERASE,[2],49.33 u/L
same,ALBUMIN,[2],4.07 G/DL
same,ALKALINE PHOSPHATASE,[2],300.33 u/L
same,ASPARTATE AMINOTRANSFERASE,[2],83.5 u/L
same,BLOOD UREA NITROGEN,[2],16 mg/dL
same,CARBON DIOXIDE,[2],29.67 mmol/L
same,CHLORIDE,[2],100.5 MEQ/L
same,CHOLESTEROL,[2],74.33 mg/dL
same,CREATINE PHOSPHOKINASE,[2],489.67 u/L
same,CREATININE,[2],0.35 mg/dL
same,GLUCOSE,[2],151 mg/dL
same,LACTATE DEHYDROGENASE,[2],133.67 u/L
same,LIPASE,[2],11.17 u/L
same,PHOSPHORUS,[2],10.88 mg/dL
same,POTASSIUM,[2],5.5 MEQ/L
same,SODIUM,[2],145.7 MEQ/L
same,TOTAL BILIRUBIN,[2],0.2 mg/dL
same,TOTAL PROTEIN,[2],6.05 G/DL
same,URIC ACID,[2],0.68 mg/dL
same,ABSOLUTE BASOPHIL,[3],0 CELLS/uL
same,ABSOLUTE EOSINOPHIL,[3],0 CELLS/uL
same,ABSOLUTE LYMPHOCYTE,[3],8269.33 CELLS/uL
same,ABSOLUTE MONOCYTE,[3],22 CELLS/uL
same,ABSOLUTE SEGMENTED NEUTROPHIL,[3],608.67 CELLS/uL
same,BASOPHIL,[3],0%
same,EOSINOPHIL,[3],0%
same,ERYTHROCYTE COUNT,[3],5.35 x10E6/uL
same,HEMATOCRIT,[3],32.93%
same,HEMOGLOBIN,[3],12.87 G/DL
same,LEUKOCYTE COUNT,[3],8.9 x10E3/uL
same,LYMPHOCYTE,[3],93%
same,MEAN CORPUSCULAR HEMOGLOBIN,[3],24.07 pg
same,MEAN CORPUSCULAR HEMOGLOBIN CONCENTRATION,[3],39.03 G/DL
same,MEAN CORPUSCULAR VOLUME,[3],61.67 fL
same,MONOCYTE,[3],0.33%
same,NEUTROPHIL,[3],6.67%
same,NUCLEATED RED BLOOD CELLS,[3],0 /100WBC
same,PLATELET COUNT,[3],1018.67 x10E3/uL
same,ALANINE AMINOTRANSFERASE,[3],51.33 u/L
same,ALBUMIN,[3],4.2 G/DL
same,ALKALINE PHOSPHATASE,[3],290.33 u/L
same,ASPARTATE AMINOTRANSFERASE,[3],79.67 u/L
same,BLOOD UREA NITROGEN,[3],14 mg/dL
same,CARBON DIOXIDE,[3],27.67 mmol/L
same,CHLORIDE,[3],100.33 MEQ/L
same,CHOLESTEROL,[3],66 mg/dL
same,CREATINE PHOSPHOKINASE,[3],304.67 u/L
same,CREATININE,[3],0.22 mg/dL
same,GLUCOSE,[3],157.67 mg/dL
same,LACTATE DEHYDROGENASE,[3],92.67 u/L
same,LIPASE,[3],11 u/L
same,PHOSPHORUS,[3],11.77 mg/dL
same,POTASSIUM,[3],5.21 MEQ/L
same,SODIUM,[3],144.33 MEQ/L
same,TOTAL BILIRUBIN,[3],0.17 mg/dL
same,TOTAL PROTEIN,[3],5.93 G/DL
same,URIC ACID,[3],0.7 mg/dL
same,ABSOLUTE BASOPHIL,[4],0 CELLS/uL
same,ABSOLUTE EOSINOPHIL,[4],0 CELLS/uL
same,ABSOLUTE LYMPHOCYTE,[4],7020.33 CELLS/uL
same,ABSOLUTE MONOCYTE,[4],0 CELLS/uL
same,ABSOLUTE SEGMENTED NEUTROPHIL,[4],813 CELLS/uL
same,BASOPHIL,[4],0%
same,EOSINOPHIL,[4],0%
same,ERYTHROCYTE COUNT,[4],5.19 x10E6/uL
same,HEMATOCRIT,[4],32.03%
same,HEMOGLOBIN,[4],12.9 G/DL
same,LEUKOCYTE COUNT,[4],7.83 x10E3/uL
same,LYMPHOCYTE,[4],90%
same,MEAN CORPUSCULAR HEMOGLOBIN,[4],24.93 pg
same,MEAN CORPUSCULAR HEMOGLOBIN CONCENTRATION,[4],40.27 G/DL
same,MEAN CORPUSCULAR VOLUME,[4],61.83 fL
same,MONOCYTE,[4],0%
same,NEUTROPHIL,[4],10%
same,NUCLEATED RED BLOOD CELLS,[4],0 /100WBC
same,PLATELET COUNT,[4],1105.67 x10E3/uL
same,ALANINE AMINOTRANSFERASE,[4],54.33 u/L
same,ALBUMIN,[4],4.27 G/DL
same,ALKALINE PHOSPHATASE,[4],413 u/L
same,ASPARTATE AMINOTRANSFERASE,[4],84 u/L
same,BLOOD UREA NITROGEN,[4],11 mg/dL
same,CARBON DIOXIDE,[4],33.67 mmol/L
same,CHLORIDE,[4],98.33 MEQ/L
same,CHOLESTEROL,[4],73 mg/dL
same,CREATINE PHOSPHOKINASE,[4],441.67 u/L
same,CREATININE,[4],0.39 mg/dL
same,GLUCOSE,[4],133 mg/dL
same,LACTATE DEHYDROGENASE,[4],119.33 u/L
same,LIPASE,[4],10.67 u/L
same,PHOSPHORUS,[4],10.57 mg/dL
same,POTASSIUM,[4],6.11 MEQ/L
same,SODIUM,[4],143.73 MEQ/L
same,TOTAL BILIRUBIN,[4],0.13 mg/dL
same,TOTAL PROTEIN,[4],6.13 G/DL
same,URIC ACID,[4],0.7 mg/dL
